Data taken from US8138186B2, “Pyrazole derivatives as sigma receptors antagonists” (Laboratorios Del Dr. Esteve, S.A., priority 2006, dated 2012).
Where a name gives a salt, the structure may show the parent alone.

What was measured:
σ1-receptor = σ1-receptor (Cavia porcellus, UniProt Q60492); experiment: σ1-receptor binding assay, [3H](+)-pentazocine, brain membranes; conditions: [3H](+)-pentazocine 0.5 nM, guinea pig brain membranes; for % Binding σ1 10^−7M: compound 10^−7M; for % Binding σ1 10^−8M: compound 10^−8M
Procedure: Brain membrane preparation and binding assays for the σ1-receptor were performed as described (DeHaven-Hudkins et al., 1992) with some modifications. In brief, guinea pig brains were homogenized in 10 vols. (w/v) of Tris-HCl 50 mM 0.32 M sucrose, pH 7.4, with a Kinematica Polytron PT 3000 at 15000 r.p.m. for 30 s. The homogenate was centrifuged at 1000 g for 10 min at 4° C. and the supernatants collected and centrifuged again at 48000 g for 15 min at 4° C. The pellet was resuspended in 10 volumes of Tris-HCl buffer (50 mM, pH 7.4), incubated at 37° C. for 30 min, and centrifuged at 48000 g for 20 min at 4° C. Following this, the pellet was resuspended in fresh Tris-HCl buffer (50 mM, pH 7.4) and stored on ice until use.
Each assay tube contained 10 μL of [^3H](+)-pentazocine (final concentration of 0.5 nM), 900 μL of the tissue suspension to a final assay volume of 1 mL and a final tissue concentration of approximately 30 mg tissue net weight/mL. […] All tubes were incubated at 37° C. for 150 min before termination of the reaction by rapid filtration over Schleicher & Schuell GF 3362 glass fibre filters [previously soaked in a solution of 0.5% polyethylenimine for at least 1 h]. Filters were then washed with four times with 4 mL of cold Tris-HCl buffer (50 mM, pH 7.4). Following addition of scintillation cocktail, the samples were allowed to equilibrate overnight. The amount of bound radioactivity was determined by liquid scintillation spectrometry using a Wallac Winspectral 1414 liquid scintillation counter.

[1] = cited from earlier work
sigma 1 (σ-1) site = sigma 1 (σ-1) site (Homo sapiens, UniProt Q99720); conditions: cited from earlier work
sigma (σ-2) site = sigma (σ-2) site (Homo sapiens, UniProt Q5BJF2); conditions: cited from earlier work
sigma (σ-2) site, sequence (Q5BJF2 whole entry): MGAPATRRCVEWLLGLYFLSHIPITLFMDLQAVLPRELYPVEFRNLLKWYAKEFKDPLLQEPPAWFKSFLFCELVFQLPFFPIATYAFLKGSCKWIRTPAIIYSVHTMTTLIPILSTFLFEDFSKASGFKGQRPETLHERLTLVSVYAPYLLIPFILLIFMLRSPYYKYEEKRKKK

σ1-receptor, sequence (Q60492 whole entry): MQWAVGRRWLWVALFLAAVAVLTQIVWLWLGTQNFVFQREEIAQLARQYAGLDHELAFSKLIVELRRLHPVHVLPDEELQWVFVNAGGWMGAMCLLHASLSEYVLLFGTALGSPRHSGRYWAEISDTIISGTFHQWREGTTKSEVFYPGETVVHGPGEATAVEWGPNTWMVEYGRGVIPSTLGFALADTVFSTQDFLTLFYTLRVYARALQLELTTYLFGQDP
sigma 1 (σ-1) site, sequence (Q99720 whole entry): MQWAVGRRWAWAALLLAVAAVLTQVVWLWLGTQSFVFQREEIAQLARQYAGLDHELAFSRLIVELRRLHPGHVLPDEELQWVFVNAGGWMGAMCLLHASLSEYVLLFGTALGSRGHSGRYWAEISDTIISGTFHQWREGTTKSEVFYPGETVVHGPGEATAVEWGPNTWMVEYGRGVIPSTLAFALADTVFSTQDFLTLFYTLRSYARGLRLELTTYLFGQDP

Compound | melting point | % Binding σ1 10^−7M (σ1-receptor) | % Binding σ1 10^−8M (σ1-receptor) | other results
CN1CCN(CC(O)COc2ccn(-c3ccc(Cl)c(Cl)c3)n2)CC1.O=C(O)C(=O)O (stereo not shown) | 189 to 192 °C | – | – | –
OC(COc1ccn(-c2ccc(Cl)c(Cl)c2)n1)CN1CCOCC1 (stereo not shown) [Example 1, 1-(1-(3,4-dichlorophenyl)-1H-pyrazol-3-yloxy)-3-morpholinopropan-2-ol oxalate] | – | 70.3% | 22.2% | –
O=C(O)C(=O)O.OC(COc1ccn(-c2ccc(Cl)c(Cl)c2)n1)CN1CCCCC1 (stereo not shown) [Example 2, 1-(1-(3,4-dichlorophenyl)-1H-pyrazol-3-yloxy)-3-(piperidin-1-yl)propan-2-ol oxalate] | 116 to 119 °C | 72.2% | 4.2% | –
O=C(O)C(=O)O.OC(COc1ccn(-c2ccc(Cl)c(Cl)c2)n1)CN1CCCC1 (stereo not shown) [Example 3, 1-(1-(3,4-dichlorophenyl)-1H-pyrazol-3-yloxy)-3-(pyrrolidin-1-yl)propan-2-ol oxalate] | – | 55.9% | 32.6% | –
Clc1ccc(-n2ccc(OCCOCCN3CCCCC3)n2)cc1Cl [Example 6, 1-(2-(2-(1-(3,4-dichlorophenyl)-1H-pyrazol-3-yloxy)ethoxy)ethyl)piperidine] | – | 82.8% | 23.7% | –
Clc1ccc(-n2ccc(OCCOCCN3CCOCC3)n2)cc1Cl.O=C(O)C(=O)O [Example 7, 4-(2-(2-(1-(3,4-dichlorophenyl)-1H-pyrazol-3-yloxy)ethoxy)ethyl)morpholine oxalate] | 154 to 156 °C | 61.6% | 25.8% | –
C[C@@H]1CN(CCCn2c3ccccc3c3ccccc32)C[C@H](C)N1 [rimcazole] | – | – | – | clinical effects in the treatment of psychosis [1]: shows effects in the treatment of psychosis
SKF 10047 | – | – | – | affinity for the sigma 1 (σ-1) site (sigma 1 (σ-1) site): nanomolar affinity; affinity for the sigma (σ-2) site (sigma (σ-2) site): micromolar affinity
